In series [1] the target is Cannabinoid receptor 1 (Homo sapiens, UniProt P21554). Type of series: cell membranes, Membrane. The following applies: chem-1. Also: in other assays of this panel Not Active means under 50% inhibition at 10 µM.
In series [2] the target is Cytochrome P450 2C9 (Homo sapiens, UniProt P11712). Also: in other assays of this panel Not Active means under 50% inhibition at 10 µM.
Series [3] concerns the target Beta-1 adrenergic receptor (Homo sapiens, UniProt P08588). Put plainly: DRUGMATRIX: Adrenergic beta1 radioligand binding (ligand: [125I] Cyanopindolol). Conditions: cho-k1; Not Active = under 50% inhibition at 10 µM. Type of series: cell membranes, CHO-K1, Membrane.
A short description of series [4]: DRUGMATRIX: Interleukin IL-1 radioligand binding (ligand: [125I] interleukin 1beta). The class given is cell membranes, Membrane. The following applies: nih3t3; Not Active = under 50% inhibition at 10 µM.
In series [5] the target is Cytochrome P450 3A4 (Homo sapiens, UniProt P08684). Also: in other assays of this panel Not Active means under 50% inhibition at 10 µM.
Chain of Cytochrome P450 3A4 (P08684 whole entry): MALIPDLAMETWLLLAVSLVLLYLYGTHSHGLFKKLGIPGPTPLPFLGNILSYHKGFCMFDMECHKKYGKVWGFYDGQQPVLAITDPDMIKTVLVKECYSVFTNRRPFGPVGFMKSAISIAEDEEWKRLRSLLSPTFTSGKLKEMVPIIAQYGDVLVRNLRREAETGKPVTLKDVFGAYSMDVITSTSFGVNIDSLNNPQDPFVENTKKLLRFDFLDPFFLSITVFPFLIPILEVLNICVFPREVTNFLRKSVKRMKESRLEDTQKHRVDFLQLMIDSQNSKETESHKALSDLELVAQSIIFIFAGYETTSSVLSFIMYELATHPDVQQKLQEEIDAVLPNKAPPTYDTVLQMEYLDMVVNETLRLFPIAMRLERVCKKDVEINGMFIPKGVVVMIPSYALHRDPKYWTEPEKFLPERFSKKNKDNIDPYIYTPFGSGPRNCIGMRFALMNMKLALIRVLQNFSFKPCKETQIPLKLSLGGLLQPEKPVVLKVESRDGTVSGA
Series [6] addresses T1, Androgen receptor (Rattus norvegicus, UniProt P15207).
T1 sequence (P15207 whole entry): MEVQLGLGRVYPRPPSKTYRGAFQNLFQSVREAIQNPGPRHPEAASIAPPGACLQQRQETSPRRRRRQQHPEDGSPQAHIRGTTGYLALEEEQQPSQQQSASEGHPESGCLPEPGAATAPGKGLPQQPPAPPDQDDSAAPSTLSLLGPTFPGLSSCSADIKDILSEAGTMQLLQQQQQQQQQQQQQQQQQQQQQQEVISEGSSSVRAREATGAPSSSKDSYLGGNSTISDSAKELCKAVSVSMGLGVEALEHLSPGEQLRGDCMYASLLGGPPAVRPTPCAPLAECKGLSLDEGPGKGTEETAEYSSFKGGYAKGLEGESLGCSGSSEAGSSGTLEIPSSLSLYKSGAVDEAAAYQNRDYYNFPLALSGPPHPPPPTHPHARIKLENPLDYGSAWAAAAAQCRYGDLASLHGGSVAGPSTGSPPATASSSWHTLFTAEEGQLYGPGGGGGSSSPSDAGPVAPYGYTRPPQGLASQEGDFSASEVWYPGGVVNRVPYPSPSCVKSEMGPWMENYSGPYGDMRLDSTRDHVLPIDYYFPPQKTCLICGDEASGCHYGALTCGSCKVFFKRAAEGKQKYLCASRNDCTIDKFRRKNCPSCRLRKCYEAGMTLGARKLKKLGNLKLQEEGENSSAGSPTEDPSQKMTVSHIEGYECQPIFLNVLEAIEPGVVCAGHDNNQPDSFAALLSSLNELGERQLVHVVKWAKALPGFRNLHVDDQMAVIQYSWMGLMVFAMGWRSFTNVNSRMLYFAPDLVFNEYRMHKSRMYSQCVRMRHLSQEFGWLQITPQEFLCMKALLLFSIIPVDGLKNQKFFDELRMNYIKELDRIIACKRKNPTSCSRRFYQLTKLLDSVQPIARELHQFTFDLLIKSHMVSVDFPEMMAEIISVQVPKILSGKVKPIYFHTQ

Series [7] concerns the target Voltage-gated inwardly rectifying potassium channel KCNH2 (Homo sapiens, UniProt Q12809). Conditions: hek293. Also: in other assays of this panel Not Active means under 50% inhibition at 10 µM.
Series [8] has as its target T2, 3-hydroxy-3-methylglutaryl-coenzyme A reductase (Homo sapiens, UniProt P04035).
T2 sequence (P04035 whole entry): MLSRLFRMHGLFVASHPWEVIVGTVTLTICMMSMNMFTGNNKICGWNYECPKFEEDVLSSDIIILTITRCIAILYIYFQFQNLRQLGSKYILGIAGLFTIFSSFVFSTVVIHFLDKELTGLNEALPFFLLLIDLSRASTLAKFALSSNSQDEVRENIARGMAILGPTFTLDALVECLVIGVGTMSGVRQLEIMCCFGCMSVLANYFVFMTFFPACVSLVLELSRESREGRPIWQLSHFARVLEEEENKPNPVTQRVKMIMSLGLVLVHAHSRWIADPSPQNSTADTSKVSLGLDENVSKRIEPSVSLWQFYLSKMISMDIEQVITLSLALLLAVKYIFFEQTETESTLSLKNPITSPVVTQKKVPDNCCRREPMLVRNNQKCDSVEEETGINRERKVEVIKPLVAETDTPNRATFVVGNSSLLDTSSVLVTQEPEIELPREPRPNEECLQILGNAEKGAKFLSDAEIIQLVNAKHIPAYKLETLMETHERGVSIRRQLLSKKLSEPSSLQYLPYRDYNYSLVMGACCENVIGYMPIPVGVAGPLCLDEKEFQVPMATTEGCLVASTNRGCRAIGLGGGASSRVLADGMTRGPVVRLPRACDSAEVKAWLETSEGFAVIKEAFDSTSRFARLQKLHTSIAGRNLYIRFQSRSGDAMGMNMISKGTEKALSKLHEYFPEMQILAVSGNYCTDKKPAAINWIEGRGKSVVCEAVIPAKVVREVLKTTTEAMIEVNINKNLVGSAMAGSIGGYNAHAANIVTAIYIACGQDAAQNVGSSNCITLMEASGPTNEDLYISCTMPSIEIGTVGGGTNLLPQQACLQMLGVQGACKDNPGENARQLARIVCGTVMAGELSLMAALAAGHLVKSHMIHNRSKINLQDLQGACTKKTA
The arrangement: species or system Escherichia coli.

For series [9], the target named is Protein phosphatase 3 catalytic subunit alpha (Homo sapiens, UniProt Q08209). Also on record: species or system Escherichia coli.
Series [10] deals with Cytochrome P450 2C19 (Homo sapiens, UniProt P33261).
Chain of Cytochrome P450 2C19 (P33261 whole entry): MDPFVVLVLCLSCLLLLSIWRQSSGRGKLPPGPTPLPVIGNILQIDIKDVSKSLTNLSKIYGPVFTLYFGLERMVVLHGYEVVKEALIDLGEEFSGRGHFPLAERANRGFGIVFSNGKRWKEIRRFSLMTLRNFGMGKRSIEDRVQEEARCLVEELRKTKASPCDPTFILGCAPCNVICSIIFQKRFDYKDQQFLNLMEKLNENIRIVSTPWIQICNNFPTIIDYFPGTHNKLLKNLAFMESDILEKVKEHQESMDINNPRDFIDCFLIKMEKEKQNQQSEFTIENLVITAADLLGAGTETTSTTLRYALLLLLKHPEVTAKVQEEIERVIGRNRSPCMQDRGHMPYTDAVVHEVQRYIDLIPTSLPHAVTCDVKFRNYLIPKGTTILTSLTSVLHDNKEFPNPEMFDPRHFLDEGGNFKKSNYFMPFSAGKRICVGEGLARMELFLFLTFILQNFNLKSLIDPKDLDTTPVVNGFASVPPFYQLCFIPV

The structures appear in SMILES notation.

Chain of Voltage-gated inwardly rectifying potassium channel KCNH2 (Q12809 whole entry): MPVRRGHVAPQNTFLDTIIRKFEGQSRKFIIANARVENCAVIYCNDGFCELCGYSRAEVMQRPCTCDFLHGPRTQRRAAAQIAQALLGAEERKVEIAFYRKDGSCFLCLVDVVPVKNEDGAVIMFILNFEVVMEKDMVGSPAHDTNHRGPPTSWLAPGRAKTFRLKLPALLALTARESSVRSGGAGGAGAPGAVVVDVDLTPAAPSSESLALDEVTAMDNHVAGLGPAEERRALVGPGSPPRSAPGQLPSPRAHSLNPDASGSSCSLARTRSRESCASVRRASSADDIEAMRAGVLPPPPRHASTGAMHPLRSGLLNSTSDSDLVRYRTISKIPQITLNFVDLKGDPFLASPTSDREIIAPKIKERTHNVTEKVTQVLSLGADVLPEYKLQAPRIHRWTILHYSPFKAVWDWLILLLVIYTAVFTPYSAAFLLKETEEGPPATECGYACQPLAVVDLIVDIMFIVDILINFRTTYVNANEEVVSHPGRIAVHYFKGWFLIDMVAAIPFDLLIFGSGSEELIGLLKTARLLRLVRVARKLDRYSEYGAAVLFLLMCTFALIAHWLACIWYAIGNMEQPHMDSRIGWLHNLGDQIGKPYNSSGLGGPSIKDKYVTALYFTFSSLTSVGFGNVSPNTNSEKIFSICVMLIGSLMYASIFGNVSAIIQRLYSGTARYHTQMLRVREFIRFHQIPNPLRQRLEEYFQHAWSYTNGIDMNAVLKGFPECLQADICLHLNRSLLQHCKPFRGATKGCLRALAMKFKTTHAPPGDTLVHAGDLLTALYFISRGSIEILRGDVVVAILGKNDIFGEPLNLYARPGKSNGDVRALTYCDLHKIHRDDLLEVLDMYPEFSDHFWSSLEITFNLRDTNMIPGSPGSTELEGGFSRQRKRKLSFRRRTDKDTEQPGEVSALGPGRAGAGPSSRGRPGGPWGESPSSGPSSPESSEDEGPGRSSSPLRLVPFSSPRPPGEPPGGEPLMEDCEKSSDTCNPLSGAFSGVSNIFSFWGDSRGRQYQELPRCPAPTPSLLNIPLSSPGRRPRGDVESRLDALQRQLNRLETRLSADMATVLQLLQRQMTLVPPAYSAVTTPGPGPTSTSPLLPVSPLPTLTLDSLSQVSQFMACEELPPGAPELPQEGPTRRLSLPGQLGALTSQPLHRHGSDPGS
Chain of Beta-1 adrenergic receptor (P08588 whole entry): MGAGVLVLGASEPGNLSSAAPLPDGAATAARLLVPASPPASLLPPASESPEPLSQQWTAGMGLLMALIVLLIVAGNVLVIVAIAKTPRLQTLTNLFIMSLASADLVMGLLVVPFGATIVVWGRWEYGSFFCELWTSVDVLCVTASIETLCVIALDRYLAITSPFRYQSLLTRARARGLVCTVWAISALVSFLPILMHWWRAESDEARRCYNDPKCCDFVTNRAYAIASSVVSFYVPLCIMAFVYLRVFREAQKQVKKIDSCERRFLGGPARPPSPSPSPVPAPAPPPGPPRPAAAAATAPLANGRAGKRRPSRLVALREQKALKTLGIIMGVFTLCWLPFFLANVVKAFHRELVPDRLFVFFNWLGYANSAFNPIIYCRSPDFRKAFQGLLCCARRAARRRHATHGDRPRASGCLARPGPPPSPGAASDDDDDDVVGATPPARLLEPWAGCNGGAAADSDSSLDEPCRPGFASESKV
Chain of Cannabinoid receptor 1 (P21554 whole entry): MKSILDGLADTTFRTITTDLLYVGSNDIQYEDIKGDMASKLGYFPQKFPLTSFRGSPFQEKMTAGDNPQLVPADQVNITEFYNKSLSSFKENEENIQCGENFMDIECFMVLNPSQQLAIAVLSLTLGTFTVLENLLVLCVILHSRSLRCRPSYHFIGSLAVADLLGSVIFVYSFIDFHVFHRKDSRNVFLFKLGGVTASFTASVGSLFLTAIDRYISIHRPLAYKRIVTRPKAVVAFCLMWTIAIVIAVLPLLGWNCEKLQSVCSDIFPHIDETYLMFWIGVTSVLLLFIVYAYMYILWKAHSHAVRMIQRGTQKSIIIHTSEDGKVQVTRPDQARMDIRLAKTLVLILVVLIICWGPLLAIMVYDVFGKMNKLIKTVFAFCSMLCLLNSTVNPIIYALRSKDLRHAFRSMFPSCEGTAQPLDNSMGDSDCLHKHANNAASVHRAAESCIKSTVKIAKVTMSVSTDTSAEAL
Chain of Cytochrome P450 2C9 (P11712 whole entry): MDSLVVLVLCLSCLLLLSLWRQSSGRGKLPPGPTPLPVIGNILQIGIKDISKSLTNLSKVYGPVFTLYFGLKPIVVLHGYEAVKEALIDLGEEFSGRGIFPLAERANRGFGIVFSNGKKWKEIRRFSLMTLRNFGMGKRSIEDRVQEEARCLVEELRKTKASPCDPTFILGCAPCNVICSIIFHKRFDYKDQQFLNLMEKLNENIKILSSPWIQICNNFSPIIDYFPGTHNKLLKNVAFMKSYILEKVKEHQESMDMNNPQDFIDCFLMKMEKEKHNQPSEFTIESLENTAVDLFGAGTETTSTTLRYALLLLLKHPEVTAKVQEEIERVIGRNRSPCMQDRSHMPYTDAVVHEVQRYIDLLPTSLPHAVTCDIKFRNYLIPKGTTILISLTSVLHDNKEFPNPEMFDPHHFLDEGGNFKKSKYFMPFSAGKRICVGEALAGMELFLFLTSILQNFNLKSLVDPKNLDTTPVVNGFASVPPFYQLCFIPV

With `COc1cc(N)nc2[nH]c(-c3ccc(F)cc3)c(-c3ccncc3)c12`, the IC50 result in series [1] was “Not Active”; in [2], 1 µM; in series [3] it was “Not Active”; in series [4], “Not Active”; in series [5], 1 µM; in series [6], “Not Active”. In addition, the IC50 entry in series [7], in series [8] and in series [9] was “Not Active” each time. Moreover, the Ki entry in series [4] and in [7] was “Not Active” each time.

Turning to `CO[C@H]1C[C@@H]2CC[C@@H](C)[C@@](O)(O2)C(=O)C(=O)N2CCCC[C@H]2C(=O)O[C@H]([C@H](C)C[C@@H]2CC[C@@H](O)[C@H](OC)C2)CC(=O)[C@H](C)/C=C(\C)[C@@H](O)[C@@H](OC)C(=O)[C@H](C)C[C@H](C)/C=C/C=C/C=C/1C` [SIROLIMUS], the IC50 result is “Not Active” in [1]; 2 µM in series [2]; “Not Active” in series [3]; 4 µM in [10]; “Not Active” in series [4]; 2 µM in series [5]. Besides, the IC50 result in series [6], in series [7], in series [8] and in [9] was “Not Active” in each case. Further, the Ki entry in [4] and in [7] was “Not Active” throughout.

These data come from ChEMBL document CHEMBL1909046, “DrugMatrix in vitro pharmacology data”.
